In EP1096022B1, “Immuno-stimulating polysaccharide substance from Phellinus spp. strain and use thereof” (KOREA INSTITUTE OF SCIENCE AND TECHNOLOGY, priority 1999, dated 2001):

How the values were obtained:
[1] = test system: B16F10 cutaneous cancer cells; assay: Viability of mice implanted intraperitoneally with B16F10 cells, co-administration with chemotherapeutics, 60 days; type: in vivo, mouse; conditions: for Proportion (%): untreated = 100
Source text: (§1) A homogeneous plantation test system of B 16F 10 cutaneous cancer cell was utilized for the measurement of the anticancer activity upon co-administration of the polysaccharide substance and adriamycin. The cutaneous cancer cells were implanted in the peritoneal cavity of mice. Adriamycin was peritoneally administered to the mice for 12 days after tumor implantation while the polysaccharide substance was peritoneally administered from a week before the implantation to 12 days after the implantation. For 60 days, the viability of the mice was recorded everyday. Adriamycin was used at such low amounts as not to damage the mice.
The cutaneous cancer cells were implanted in the peritoneal cavity of mice. […] For 60 days, the viability of the mice was recorded everyday. Mitomycin C was used at such low amounts as not to damage the mice.
The cutaneous cancer cells were implanted in the peritoneal cavity of mice. […] For 60 days, the viability of the mice was recorded everyday. Cisplastin was used at such low amounts as not to damage the mice.
as §1, with “B16F10” for “B 16F 10”, “5-fluoro uracil, as in the above experiments.” for “adriamycin.”, “5-fluoro uracil” for “Adriamycin”

[2] = test system: NCl-H23 lung cancer cells; assay: Human lung cancer cells implanted subcutaneously in nude mice, tumor size and weight; type: in vivo
Method: The activity of the polysaccharide substance against human cancer was assayed using NCl-H23, a lung cancer cell line. Nude mice were subcutaneously implanted with NCl-H23 lung cancer cells. The polysaccharide substance and adriamycin were peritoneally administered to the nude mice for 12 days after cancer cell implantation. […] Because the nude mice were devoid of T-cells, their immunological competency was generally attributed to the activity of natural killer cells or macrophage cells. Therefore, the immunological enhancement obtained when administering the polysaccharide substance was meditated through these two type cells.

[3] = test system: B16F10 cutaneous cancer cells; assay: Lung metastasis after tail-vein implantation of B16F10 cells, spots counted on the 14th day; type: in vivo, C57BL/6 mice
Source text: In order to test the polysaccharide substance for the prevention of cancer metastasis, B16F10 cutaneous cancer cells were implanted in the tail veins of C57BL/6 mice. On the 14th day after implantation, the lungs were isolated from the mice to investigate whether or to what extent cancer metastasis occurred. Adriamycin was peritoneally administered to the mice for 12 days after tumor implantation while the polysaccharide substance was peritoneally administered from a week before the implantation to 12 days after the implantation. […]

[4] = test system: B16F10 mouse cutaneous cancer cells; assay: Direct cytotoxicity, sulforhodamin B method
[5] = test system: NCl-H23 human lung cancer cells; assay: Direct cytotoxicity, sulforhodamin B method
[6] = 0.3 µg/mL, 2nd day after treatment

N.N.[Cl][Pt][Cl] [C.P, Cisplatin]
Avg. Viability ([1]; cisplatin 0.5 mg/kg alone): 33.0 days
Nos. of viable mice on the 60th day ([1]; cisplatin 0.5 mg/kg alone): 0/10
Avg. Viability ([1]; cisplatin 0.5 mg/kg alone, listed as Cisplatin): 33 days
Proportion (%) ([1]; cisplatin 0.5 mg/kg alone): 182.3%
Avg. Viability ([1]; cisplatin 1.5 mg/kg alone): 40.5 days
Nos. of viable mice on the 60th day ([1]; cisplatin 1.5 mg/kg alone): 2/10
Proportion (%) ([1]; cisplatin 1.5 mg/kg alone): 223.8%

CO[C@@]12[C@H](COC(N)=O)C3=C(C(=O)C(C)=C(N)C3=O)N1C[C@@H]1N[C@@H]12 [M.C, Mitomycin C]
Nos. of viable mice on the 60th day ([1]; mitomycin C 0.2 mg/kg alone): 0/10
Avg. Viability ([1]; mitomycin C 0.6 mg/kg alone): 38.0 days
Nos. of viable mice on the 60th day ([1]; mitomycin C 0.6 mg/kg alone): 1/10

COc1cccc2c1C(=O)c1c(O)c3c(c(O)c1C2=O)C[C@@](O)(C(=O)CO)C[C@@H]3O[C@H]1C[C@H](N)[C@H](O)[C@H](C)O1 [Adriamycin]
Avg. Viability ([1]; adriamycin 0.1 mg/kg alone): 35.4 days
Nos. of viable mice on the 60th day ([1]; adriamycin 0.1 mg/kg alone): 0/10
Proportion (%) ([1]; adriamycin 0.1 mg/kg alone): 195.6%
Avg. Viability ([1]; adriamycin 0.3 mg/kg alone): 40.1 days
Nos. of viable mice on the 60th day ([1]; adriamycin 0.3 mg/kg alone): 2/10
Proportion (%) ([1]; adriamycin 0.3 mg/kg alone): 240.9%
Cell size ([2]; 14th day, 1mg/kg peritoneally for 12 days): 12 mm^3
Cell size ([2]; 17th day, 1mg/kg): 27 mm^3
Cell size ([2]; 18th day, 1mg/kg): 34 mm^3
Cell size ([2]; 19th day, 1mg/kg): 33 mm^3
Final Cancer Weight ([2]; 19th day, 1mg/kg): 95
Nos. of Spots ([3]; adriamycin 1mg/kg alone): 197
Nos. of Spots ([3]; adriamycin 3mg/kg alone): 172
cell quantity (untreated = 100 %) [4, 6]: 56%
cell quantity (untreated = 100 %) ([4]; 1 µg/mL, 2nd day): 29%
cell quantity (untreated = 100 %) ([4]; 3 µg/mL, 2nd day): 9%
cell quantity (untreated = 100 %) ([4]; 10 µg/mL, 2nd day): -10%
cell quantity (untreated = 100 %) ([4]; 30 µg/mL, 2nd day): -10%
cytotoxicity to cancer cells ([4]; overall statement): potent cytotoxicity
cell quantity (untreated = 100 %) [5, 6]: 100%
cell quantity (untreated = 100 %) ([5]; 1 µg/mL, 2nd day): 71%
cell quantity (untreated = 100 %) ([5]; 3 µg/mL, 2nd day): 39%
cell quantity (untreated = 100 %) ([5]; 10 µg/mL, 2nd day): 7%
cell quantity (untreated = 100 %) ([5]; 30 µg/mL, 2nd day): -1%
cytotoxicity to cancer cells ([5]; overall statement): potent cytotoxicity

O=c1[nH]cc(F)c(=O)[nH]1 [5-FU, 5-fluoro uracil]
Avg. Viability ([1]; 5-fluorouracil 1 mg/kg alone): 33.0 days
Nos. of viable mice on the 60th day ([1]; 5-fluorouracil 1 mg/kg alone): 0/10
Avg. Viability ([1]; 5-fluorouracil 1 mg/kg alone, listed as 5-Fluorouracil): 34.2 days
Proportion (%) ([1]; 5-fluorouracil 1 mg/kg alone): 187.8%
Avg. Viability ([1]; 5-fluorouracil 3 mg/kg alone): 40.5 days
Nos. of viable mice on the 60th day ([1]; 5-fluorouracil 3 mg/kg alone): 2/10
Avg. Viability ([1]; 5-fluorouracil 3 mg/kg alone, listed as 5-fluorouracil): 40.2 days
Proportion (%) ([1]; 5-fluorouracil 3 mg/kg alone): 222%
